Assay results from patent US12509714B2, “Multiple heteroresistance to guide combination antibiotic regimens” (priority 2018, dated 2025).
“Also recorded” adds a separate entry of the source. Read-outs that look alike come from different tables or passages of the source.

How the values were obtained:
[1] = tested on: pan-resistant Klebsiella pneumoniae isolate Nevada-2016; format: cell-based
Experimental: (§1) Population analysis profile. Population analysis profiles (PAPs) were conducted. Briefly, solid agar plates were made for each antibiotic at 7 concentrations containing 0, 0.125, 0.25, 0.5, 1, 2 and 4 times the breakpoint, using Mueller Hinton agar. Breakpoint concentrations for Enterobacteriaceae from CLSI (amikacin 64 ug/mL, gentamicin 16 ug/mL, tobramycin 16 ug/mL, ampicillin 32 ug/mL, aztreonam 16 ug/mL, cefazolin 32 ug/mL, cefepime 16 ug/mL, ceftazidime 16 ug/mL, meropenem 4 ug/mL, piperacillin/tazobactam 128/4 ug/mL, ciprofloxacin 1 ug/mL, fosfomycin 256 ug/mL (breakpoint for UPEC; 25 mg/L glucose-6-phosphate added to the media), tetracycline 16 ug/mL, trimethoprim/sulfamethoxazole 4/76 ug/mL), FDA (tigecycline 8 ug/mL), or EUCAST (colistin 4 ug/mL) were used. Dual PAPs were made similarly, with both drugs in each plate at the same multiple of their respective breakpoint (0, 0.125, 0.25, 0.5, 1, 2, 4 times the breakpoint). Isolates to be tested were grown up overnight in Mueller Hinton broth from a single colony isolated from a frozen stock. Serial microdilutions were plated at each concentration of antibiotic. Colonies were enumerated after overnight growth at 37° C. An isolate was classified as resistant if the number of colonies that grew at the breakpoint concentration were at least 50% of those that grew on antibiotic free plates. If an isolate was not resistant, it was classified as heteroresistant if the number of colonies that grew at 2 or 4 times the breakpoint were at least 0.0001% (1 in 10^6) of those that grew on antibiotic free plates. If isolates were neither classified as resistant or heteroresistant, they were classified as susceptible.

[2] = tested on: pan-resistant Klebsiella pneumoniae isolate AR0040; format: cell-based; conditions: amikacin 64 μg/mL; piperacillin 256 μg/mL tazobactam 4 μg/mL
Experimental: (§2) Time kills. Time kills were conducted. Briefly, 10^6 CFU/mL bacteria from an overnight culture were inoculated into 2 mL MH media in culture tubes (Globe Scientific) with and without antibiotic(s). The following concentrations were used: colistin 16 μg/mL, ceftazidime 128 μg/mL, fosfomycin 256 μg/mL (+25 mg/L Glucose-6-Phosphate (G6P)), ampicillin 128 μg/mL (FIG. 1e-h and Supplementary FIG. 2), fosfomycin 256 μg/mL (+25 mg/L G6P), trimethoprim 4 μg/mL sulfamethoxazole 76 μg/mL, amikacin 64 μg/mL, and piperacillin 256 μg/mL tazobactam 4 μg/mL (FIGS. 5C, D, G, H). Cultures were incubated at 37° C. shaking at 250 RPM for 1-48 hours. CFU were determined by serial diluting bacteria in PBS prior to plating on MH agar plates at various timepoints in the assay (0, 1, 2, 4, 6, 8, 10, 24, and 48 hour timepoints were used for time-kills). In FIG. 1E-H, serially diluted bacteria were also plated on MH agar plates with antibiotic added (colistin 16 μg/mL, ceftazidime128 μg/mL, fosfomycin 256 μg/mL(+25 mg/L G6P), and ampicillin 128 μg/mL). In FIGS. 5D, H culture tubes were imaged with a Canon EOS Rebel T3i.

[3] = tested on: Enterobacter cloacae isolate Mu208; format: cell-based; conditions: for resistance status of Mu208 by PAP: Mueller Hinton agar, 0-4 times the breakpoint
Experimental: as §1

[4] = tested on: Enterobacter cloacae isolate Mu208; format: cell-based; conditions: for initial reduction in bacterial levels: ceftazidime 128, ampicillin 128 μg/mL
Experimental: as §2

[5] = tested on: Enterobacter cloacae isolate Mu208; assay: Frequency of resistant subpopulations of Mu208 on antibiotic treatment and after subculture without antibiotic; format: cell-based; conditions: for frequency of the respective resistant subpopulation on treatment: in the presence of the antibiotic; for frequency of resistant subpopulation upon subculture in the absence of antibiotic: antibiotic-free subculture
[6] = tested on: carbapenem-resistant Enterobacteriaceae (CRE) clinical isolates; assay: PAP screen of 104 CRE clinical isolates for heteroresistance to 16 antibiotics; format: cell-based; conditions: 104 CRE isolates
Experimental: as §1, with “If an isolate was not resistant, it was classified as heteroresistant if the number of colonies that grew at 2 or 4 times the breakpoint were at least 0.0001% (1 in 10^6) of those that grew on antibiotic free plates. If isolates were neither classified as resistant or heteroresistant, they were classified as susceptible.” left out

[7] = tested on: Mu1176; assay: Control isolate Mu1176, resistance designation; format: cell-based
Source text: (§3) Bacterial isolates. Enterobacter cloacae isolate Mu208 was isolated from a urine sample at an Atlanta area hospital. […] Carbapenem-resistant Enterobacteriaceae (CRE) were collected between 2013 and 2015 by the Georgia EIP MuGSI. The CDC for provided pan-resistant Klebsiella pneumoniae isolates AR0040 and Nevada-2016.

[8] = tested on: Mu661; assay: Control isolate Mu661, resistance designation; format: cell-based
Source text: as §3

[9] = tested on: Mu712
Source text: as §3

[10] = tested on: pan-resistant Klebsiella pneumoniae isolate Nevada-2016; format: cell-based; conditions: breakpoint concentration
Experimental: as §2

[11] = tested on: Mu819; assay: Susceptible control isolate Mu819 (designation, PAP, time kill); format: cell-based
Experimental: as §3, §1
as §2, with “Cultures were incubated at 37° C. shaking at 250 RPM for 1-48 hours.” left out, “In FIG. 1E-H, serially diluted bacteria were also plated on MH agar plates with antibiotic added (colistin 16 μg/mL, ceftazidime128 μg/mL, fosfomycin 256 μg/mL(+25 mg/L G6P), and ampicillin 128 μg/mL). In FIGS. 5D, H culture tubes were imaged with a Canon EOS Rebel T3i.” left out

[12] = tested on: Mu208 ΔphoQ; assay: Resistant subpopulations in the Mu208 phoQ deletion mutant; format: cell-based, Enterobacter cloacae; conditions: compared with parental Mu208
Source text: Colistin heteroresistance in Enterobacter requires the two-component system histidine kinase PhoQ which we deleted from Mu208 to test whether colistin heteroresistance was linked to ceftazidime or fosfomycin heteroresistance.
Cloning and mutagenesis. Mu208 ΔphoQ was generated by lambda red recombination. Briefly, a kanamycin cassette flanked by FRT sites with homology to the regions directly upstream and downstream, respectively, of the phoQ open reading frame (ORF) was inserted into the phoQ ORF in Mu208 with pKD46-tet, prior to it being removed with a flp recombinase encoded on the temperature sensitive plasmid, PCP20.

[13] = colistin 16, ceftazidime 128, fosfomycin 256 μg/mL

Compound | resistance status of Mu208 by PAP [3] | initial reduction in bacterial levels ([4]; single antibiotic) | frequency of the respective resistant subpopulation on treatment [5] | proportion of the isolates exhibiting heteroresistance [6] [%] | resistance designation of control isolate Mu1176 [7] | activity in combination with ampicillin [3] | activity in combination with ampicillin [4] | frequency of resistant subpopulation upon subculture in the absence of antibiotic [5] | concentration at which the resistant subpopulation survived ([3]; PAP) [fold the breakpoint] | behaviour of resistant subpopulation / outgrowth in the presence of the single antibiotic [4, 13] | resistance designation of control isolate Mu819 [11] | also measured
NCC[C@H](O)C(=O)N[C@@H]1C[C@H](N)[C@@H](O[C@H]2O[C@H](CN)[C@@H](O)[C@H](O)[C@H]2O)[C@H](O)[C@H]1O[C@H]1O[C@H](CO)[C@@H](O)[C@H](N)[C@H]1O [amikacin] | – | – | – | – | – | – | – | – | – | – | – | resistance status of Nevada-2016 by PAP [1]: homogenous resistance; initial killing of AR0040 by single drug [2]: significant initial killing
CC1(C)S[C@@H]2[C@H](NC(=O)[C@H](N)c3ccccc3)C(=O)N2[C@H]1C(=O)O [ampicillin] | homogenous resistance | did not lead to the initial reduction in bacterial levels | constant | 1.0 | resistant | – | – | – | – | – | – | killing of cells in PAP ([3]; any of the concentrations tested): lack of significant killing; resistance designation of control isolate Mu661 [8]: susceptible
CC(C)(O/N=C(\C(=O)N[C@@H]1C(=O)N2C(C(=O)[O-])=C(C[n+]3ccccc3)CS[C@H]12)c1csc(N)n1)C(=O)O [ceftazidime] | heteroresistance | killing was delayed | robust increase | – | resistant | not enhanced | not enhanced | returned to the baseline levels | – | – | – | concentration at which the resistant subpopulation survived [3]: 4 fold the breakpoint; behaviour of resistant subpopulation / outgrowth in the presence of the single antibiotic [4]: rapidly increased in number; also recorded: unable to prevent subsequent outgrowth; resistance designation of control isolate Mu712 [9]: susceptible
C[C@@H]1O[C@@H]1P(=O)(O)O [fosfomycin] | heteroresistance | – | robust increase | 72.1 | resistant | not enhanced | not enhanced | returned to the baseline levels | 4 | rapidly increased in number; also recorded: unable to prevent subsequent outgrowth | susceptible | killing of Nevada-2016 by single antibiotic [10]: killing of a significant proportion of the bacteria
colistin | heteroresistance | – | robust increase | – | resistant | – | – | returned to the baseline levels | 4 | expanded exponentially | susceptible | MIC of resistant subpopulation relative to the susceptible cells in the population ([3]; PAP): at least 32 fold; Mu208 cells killed by a concentration below the clinical breakpoint ([3]; PAP): Roughly 4 logs; activity in combination with ampicillin ([3]; dual PAP with ampicillin): not enhanced; behaviour of resistant subpopulation / outgrowth in the presence of the single antibiotic ([4]; colistin 16, ceftazidime 128, fosfomycin 256 μg/mL, listed as Colistin): unable to prevent subsequent outgrowth; time within which the susceptible cells were killed ([4]; single antibiotic, colistin 16 μg/mL): one; activity in combination with ampicillin ([4]; time-kill with ampicillin): not enhanced; resistant subpopulation in the phoQ mutant [12]: absent; killing of representative susceptible isolate in PAP ([11]; concentration below the breakpoint, isolate not named at b160, Mu819): all the cells of a representative susceptible isolate were killed; outcome of treatment of a susceptible strain in time kill ([11]; strain not named at b162, Mu819): eradicated
